Where “and” joins values, the source holds several entries; their conditions need not be identical. Equal entries are not always repeated.
Details: Fluid (supercritical or subcritical phases); for viscosity: Vibrating wire viscometry; for mass density: Buoyancy - hydrostatic balance with magnetic suspension - one sinker

CCCC [butane]
Details | mass density | viscosity
428.09 K, 5150.2 kPa | – | 0.04428 mPa·s
428.1 K, 796.14 kPa | 14.038 kg/m3 | 0.01066 mPa·s
428.1 K, 796.19 kPa | 14.041 kg/m3 | 0.01066 mPa·s
428.1 K, 904.9 kPa | 16.138 kg/m3 | 0.01069 mPa·s
428.1 K, 1964.1 kPa | 40.163 kg/m3 | 0.01117 mPa·s
428.1 K, 4625.9 kPa | 341.66 kg/m3 | 0.04038 mPa·s
428.11 K, 131.61 kPa | 2.1741 kg/m3 | 0.01052 mPa·s
428.11 K, 131.64 kPa | 2.1741 kg/m3 | 0.01052 mPa·s
428.11 K, 904.86 kPa | 16.141 kg/m3 | 0.01069 mPa·s
428.11 K, 1964.3 kPa | 40.167 kg/m3 | 0.01118 mPa·s
428.11 K, 4626.6 kPa | 341.66 kg/m3 | 0.04035 mPa·s
428.11 K, 4626.8 kPa | 341.65 kg/m3 | 0.04033 mPa·s
428.12 K, 685.03 kPa | 11.939 kg/m3 | 0.01063 mPa·s
428.12 K, 2306.2 kPa | 49.889 kg/m3 and 49.887 kg/m3 | 0.01144 mPa·s
428.12 K, 3964.9 kPa | 218.37 kg/m3 | 0.02262 mPa·s
428.12 K, 3984.8 kPa | 246.5 kg/m3 | 0.02576 mPa·s
428.12 K, 3984.9 kPa | 246.49 kg/m3 | 0.02577 mPa·s
428.13 K, 480.91 kPa | 8.2126 kg/m3 | 0.01059 mPa·s
428.13 K, 578.67 kPa | 9.9774 kg/m3 | 0.01061 mPa·s
428.13 K, 684.54 kPa | 11.929 kg/m3 | 0.01063 mPa·s
428.13 K, 2624.6 kPa | 60.353 kg/m3 | 0.01177 mPa·s
428.13 K, 2624.7 kPa | 60.36 kg/m3 | 0.01177 mPa·s
428.13 K, 2862.9 kPa | 69.476 kg/m3 | 0.01209 mPa·s
428.13 K, 3655.2 kPa | 119.22 kg/m3 | 0.01443 mPa·s
428.13 K, 3964.8 kPa | 218.33 kg/m3 | 0.02263 mPa·s
428.13 K, 3990.1 kPa | 251.58 kg/m3 and 251.63 kg/m3 | 0.02637 mPa·s and 0.02638 mPa·s
428.13 K, 5948.9 kPa | 378 kg/m3 | 0.04846 mPa·s
428.13 K, 5949.6 kPa | 378.01 kg/m3 and 378.02 kg/m3 | 0.04837 mPa·s and 0.04844 mPa·s
428.14 K, 480.81 kPa | 8.2112 kg/m3 | 0.01059 mPa·s
428.14 K, 578.76 kPa | 9.9803 kg/m3 | 0.01061 mPa·s
428.14 K, 1041.2 kPa | 18.856 kg/m3 | 0.01073 mPa·s
428.14 K, 2862.8 kPa | 69.471 kg/m3 | 0.01209 mPa·s
428.14 K, 3427.1 kPa | 99.322 kg/m3 | 0.01338 mPa·s
428.14 K, 3655.7 kPa | 119.23 kg/m3 | 0.01444 mPa·s
428.14 K, 4145.9 kPa | 304.6 kg/m3 | 0.03374 mPa·s
428.14 K, 4146.2 kPa | 304.61 kg/m3 | 0.03373 mPa·s
428.14 K, 30018 kPa | 498.2 kg/m3 | 0.09505 mPa·s
428.14 K, 30022 kPa | 498.2 kg/m3 | 0.09486 mPa·s
428.14 K, 30023 kPa | 498.21 kg/m3 | 0.09498 mPa·s
428.15 K, 1040.7 kPa | 18.847 kg/m3 | 0.01073 mPa·s
428.15 K, 3263.7 kPa | 88.854 kg/m3 | 0.01288 mPa·s
428.15 K, 3427.2 kPa | 99.316 kg/m3 | 0.01337 mPa·s
428.15 K, 4067.3 kPa | 289 kg/m3 | 0.03129 mPa·s
428.15 K, 4067.5 kPa | 288.98 kg/m3 | 0.03132 mPa·s
428.15 K, 12773 kPa | 440.28 kg/m3 | 0.06754 mPa·s
428.15 K, 17075 kPa | 460.12 kg/m3 | 0.07551 mPa·s
428.15 K, 17077 kPa | 460.12 kg/m3 | 0.07561 mPa·s
428.16 K, 62.1 kPa | 1.0176 kg/m3 | 0.01051 mPa·s
428.16 K, 3263.8 kPa | 88.856 kg/m3 | 0.01289 mPa·s
428.16 K, 7467.1 kPa | 399.68 kg/m3 | 0.05418 mPa·s
428.16 K, 7467.5 kPa | 399.69 kg/m3 | 0.05413 mPa·s
428.16 K, 9661.1 kPa | 420.21 kg/m3 | 0.06045 mPa·s
428.16 K, 9662.3 kPa | 420.22 kg/m3 | 0.06047 mPa·s
428.16 K, 12732 kPa | 440.05 kg/m3 | 0.06741 mPa·s
428.16 K, 12735 kPa | 440.06 kg/m3 | 0.06744 mPa·s
428.17 K, 62.1 kPa | 1.0183 kg/m3 | 0.01051 mPa·s
428.17 K, 3976.1 kPa | 230.45 kg/m3 | 0.02394 mPa·s
428.17 K, 7466.2 kPa | 399.67 kg/m3 | 0.05411 mPa·s
428.18 K, 62.1 kPa | 1.0176 kg/m3 | 0.01051 mPa·s
428.18 K, 1098.5 kPa | 20.025 kg/m3 | 0.01075 mPa·s
428.18 K, 1099.1 kPa | 20.038 kg/m3 | 0.01075 mPa·s
428.18 K, 3790.9 kPa | 137.62 kg/m3 | 0.01558 mPa·s
428.18 K, 3953.3 kPa | 199.18 kg/m3 | 0.02063 mPa·s
428.18 K, 3976.3 kPa | 230.48 kg/m3 | 0.02395 mPa·s
428.18 K, 4312 kPa | 322.22 kg/m3 | 0.03673 mPa·s
428.18 K, 4312.4 kPa | 322.24 kg/m3 and 322.25 kg/m3 | 0.03673 mPa·s and 0.03668 mPa·s
428.19 K, 3883.8 kPa | 159.22 kg/m3 | 0.01712 mPa·s
428.19 K, 3884.1 kPa | 159.21 kg/m3 | 0.01712 mPa·s
428.19 K, 3938.7 kPa | 185.24 kg/m3 | 0.01931 mPa·s
428.19 K, 3939.2 kPa | 185.3 kg/m3 | 0.01933 mPa·s
428.19 K, 3953.5 kPa | 199.12 kg/m3 | 0.02064 mPa·s

Reference: the NIST ThermoML archive (doi:10.1021/acs.jced.5b00654)
